According to article PMC12664123, “Exploring Nirmatrelvir Derivatives Through P2 Substituent Modifications and Warhead Innovations Targeting the Main Protease of SARS‐CoV‐2” (Archiv Der Pharmazie, 2025):
pKi: −log10 of the molar value.

Experiments:
WT SARS-CoV-2 Mpro = WT SARS-CoV-2 Mpro (Severe acute respiratory syndrome coronavirus 2, UniProt P0DTD1); test: Jump-dilution assay for reversibility of inhibition; type: biochemical; settings: for mechanism of inhibition (reversibility): incubated 30 min at 100 nM M^pro and 200 nM inhibitor, 10-fold dilution, followed 30 min; for residual enzyme activity after jump dilution: 10-fold dilution to 10 nM M^pro, 20 nM inhibitor
SARS-CoV-2 M^pro [1] = molecular target: T1, SARS-CoV-2 M^pro (Severe acute respiratory syndrome coronavirus 2, UniProt P0DTD1); test: Determination of the inhibition constants (Ki) for SARS-CoV-2 Mpro, Morrison equation, QS1 fluorogenic substrate; type: biochemical; settings: for pKi / Biological Activity (pKi): M^pro 25 nM, QS1 20 µM; for pKi: 30 min preincubation at 37°C, pH 7.2; for Biological Activity (pKi): supplement table, 30 min preincubation at 37 °C; for fold more potent than compound 22 / ΔpK i relative to oxime analog 22: warhead exchange, vs compound 22
[2] = Metabolic stability against liver microsomes, loss of parent compound by HPLC-UV; settings: 37°C; for remaining parent compound after 480 min: rat liver microsomes 0.2 mg/mL, NADPH, 100 µM compound, 480 min (8 h); for metabolic stability toward liver microsomes (in words): rat liver microsomes, up to 480 min
SARS-CoV-2 M^pro [3] = molecular target: T1, SARS-CoV-2 M^pro; test: Determination of Kinact/KI for time-dependent (irreversible) inhibitors, progress curves; type: biochemical; settings: for kinact/KI: read-out: Kinact/KI (supplement table)

SMILES | pKi (SARS-CoV-2 M^pro [1]) | Biological Activity (pKi) (SARS-CoV-2 M^pro [1]) | other results
CO[C@@H]1C[C@@H](C(=O)N[C@H](C=NO)C[C@@H]2CCNC2=O)N(C(=O)[C@@H](NC(=O)C(F)(F)F)C(C)(C)C)C1 [Compound 22, (2S,4R)−1‐{(S)−3,3‐Dimethyl‐2‐(2,2,2‐Trifluoroacetamido)butanoyl}‐N‐[(S)−1‐(Hydroxyimino)−3‐[(S)−2‐Oxopyrrolidin‐3‐yl]Propan‐2‐yl]−4‐Methoxypyrrolidine‐2‐Carboxamide] | 6.80 | 6.8 ± 0.01 | mechanism of inhibition (reversibility) (WT SARS-CoV-2 Mpro): reversible; remaining parent compound after 480 min [2]: ca. 60%
CC(C)(C)[C@H](NC(=O)C(F)(F)F)C(=O)N1C[C@H](c2ccccc2)C[C@H]1C(=O)N[C@H](C=NO)C[C@@H]1CCNC1=O [Compound 23, (2S,4S)−1‐{(S)−3,3‐Dimethyl‐2‐(2,2,2‐Trifluoroacetamido)Butanoyl}‐N‐[(S)−1‐(Hydroxyimino)−3‐[(S)−2‐Oxopyrrolidin‐3‐yl]Propan‐2‐yl]−4‐Phenylpyrrolidine‐2‐Carboxamide] | 7.30 | 7.3 ± 0.01 | –
C=CCO[C@@H]1C[C@@H](C(=O)N[C@H](C=NO)C[C@@H]2CCNC2=O)N(C(=O)[C@@H](NC(=O)C(F)(F)F)C(C)(C)C)C1 [Compound 24, (2S,4R)−4‐(Allyloxy)−1‐{(S)−3,3‐Dimethyl‐2‐(2,2,2‐Trifluoroacetamido)Butanoyl}‐N‐[(S)−1‐(Hydroxyimino)−3‐[(S)−2‐Oxopyrrolidin‐3‐yl]Propan‐2‐yl]Pyrrolidine‐2‐Carboxamide] | 7.30 | 7.3 ± 0.08 | –
C#CCO[C@@H]1C[C@@H](C(=O)N[C@H](C=NO)C[C@@H]2CCNC2=O)N(C(=O)[C@@H](NC(=O)C(F)(F)F)C(C)(C)C)C1 [Compound 25, (2S,4R)−1‐{(S)−3,3‐Dimethyl‐2‐(2,2,2‐Trifluoroacetamido)Butanoyl}‐N‐[(S)−1‐(Hydroxyimino)−3‐[(S)−2‐Oxopyrrolidin‐3‐yl]Propan‐2‐yl]−4‐(Prop‐2‐yn‐1‐Yloxy)Pyrrolidine‐2‐Carboxamide] | 7.50 | 7.5 ± 0.04 | –
CCO[C@@H]1C[C@@H](C(=O)N[C@H](C=NO)C[C@@H]2CCNC2=O)N(C(=O)[C@@H](NC(=O)C(F)(F)F)C(C)(C)C)C1 [Compound 26, (2S,4R)−1‐{(S)−3,3‐Dimethyl‐2‐(2,2,2‐Trifluoroacetamido)Butanoyl}−4‐Ethoxy‐N‐[(S)−1‐(Hydroxyimino)−3‐[(S)−2‐Oxopyrrolidin‐3‐yl]Propan‐2‐yl]Pyrrolidine‐2‐Carboxamide] | 7.00 | 7.0 ± 0.02 | –
CC(C)(C)[C@H](NC(=O)C(F)(F)F)C(=O)N1C[C@H](C2CCCCC2)C[C@H]1C(=O)N[C@H](C=NO)C[C@@H]1CCNC1=O [Compound 27, (2S,4S)−4‐Cyclohexyl‐1‐{(S)−3,3‐Dimethyl‐2‐(2,2,2‐Trifluoroacetamido)Butanoyl}‐N‐[(S)−1‐(Hydroxyimino)−3‐[(S)−2‐Oxopyrrolidin‐3‐yl]Propan‐2‐yl]Pyrrolidine‐2‐Carboxamide] | 7.00 | 7.0 ± 0.02 | –
CC(=O)N[C@@H]1C[C@@H](C(=O)N[C@H](C=NO)C[C@@H]2CCNC2=O)N(C(=O)[C@@H](NC(=O)C(F)(F)F)C(C)(C)C)C1 [Compound 28, (2S,4R)−4‐Acetamido‐1‐{(S)−3,3‐Dimethyl‐2‐(2,2,2‐Trifluoroacetamido)Butanoyl}‐N‐[(S)−1‐(Hydroxyimino)−3‐[(S)−2‐Oxopyrrolidin‐3‐yl]Propan‐2‐yl]Pyrrolidine‐2‐Carboxamide] | 7.00 | 7.0 ± 0.03 | –
CC(C)(C)[C@H](NC(=O)C(F)(F)F)C(=O)N1C[C@H](OCc2ccccc2)C[C@H]1C(=O)N[C@H](C=NO)C[C@@H]1CCNC1=O [Compound 29, (2S,4R)−4‐(Benzyloxy)−1‐{(S)−3,3‐Dimethyl‐2‐(2,2,2‐Trifluoroacetamido)Butanoyl}‐N‐[(S)−1‐(Hydroxyimino)−3‐[(S)−2‐Oxopyrrolidin‐3‐yl]Propan‐2‐yl]Pyrrolidine‐2‐Carboxamide] | 6.70 | 6.7 ± 0.02 | –
CO[C@@H]1C[C@@H](C(=O)N[C@H](/C=C(\F)S(=O)(=O)c2ccccc2)C[C@@H]2CCNC2=O)N(C(=O)[C@@H](NC(=O)C(F)(F)F)C(C)(C)C)C1 [Compound 30, (2S,4R)−1‐{(S)−3,3‐Dimethyl‐2‐(2,2,2‐Trifluoroacetamido)Butanoyl}‐N‐[(S,E)−4‐Fluoro‐1‐((S)−2‐Oxopyrrolidin‐3‐yl)−4‐(Phenylsulfonyl)but‐3‐en‐2‐yl]−4‐Methoxypyrrolidine‐2‐Carboxamide] | 8.10 | 8.1 ± 0.01 | mechanism of inhibition (reversibility) (WT SARS-CoV-2 Mpro): reversible; fold more potent than compound 22 (SARS-CoV-2 M^pro [1]): ~20 fold; ΔpK i relative to oxime analog 22 (SARS-CoV-2 M^pro [1]): 1.3; remaining parent compound after 480 min [2]: ~100%
CO[C@@H]1C[C@@H](C(=O)N[C@H](C#N)C[C@@H]2CCNC2=O)N(C(=O)[C@@H](NC(=O)C(F)(F)F)C(C)(C)C)C1 [Compound 31, (2S,4R)‐N‐[(S)−1‐Cyano‐2‐[(S)−2‐Oxopyrrolidin‐3‐yl]Ethyl]−1‐{(S)−3,3‐Dimethyl‐2‐(2,2,2‐Trifluoroacetamido)Butanoyl}−4‐Methoxypyrrolidine‐2‐Carboxamide] | 8.80 | 8.8 ± 0.01 | fold more potent than compound 22 (SARS-CoV-2 M^pro [1]): 100 fold; ΔpK i relative to oxime analog 22 (SARS-CoV-2 M^pro [1]): 2.0; remaining parent compound after 480 min [2]: ~100%
CO[C@@H]1C[C@@H](C(=O)N[C@H](/C=C/S(=O)(=O)c2ccccc2)C[C@@H]2CCNC2=O)N(C(=O)[C@@H](NC(=O)C(F)(F)F)C(C)(C)C)C1 [Compound 32, (2S,4R)−1‐{(S)−3,3‐Dimethyl‐2‐(2,2,2‐Trifluoroacetamido)butanoyl}−4‐Methoxy‐N‐[(S,E)−1‐((S)−2‐Oxopyrrolidin‐3‐yl)−4‐(Phenylsulfonyl)but‐3‐en‐2‐yl]Pyrrolidine‐2‐Carboxamide] | – | – | kinact/KI (SARS-CoV-2 M^pro [3]): 4400 M⁻¹ s⁻¹; residual enzyme activity after jump dilution (WT SARS-CoV-2 Mpro): very low residual enzyme activity; mechanism of inhibition (reversibility) (WT SARS-CoV-2 Mpro): irreversible
COc1ccc(C(=O)ON=C[C@H](C[C@@H]2CCNC2=O)NC(=O)[C@@H]2C[C@@H](OC)CN2C(=O)[C@@H](NC(=O)C(F)(F)F)C(C)(C)C)cc1 [Compound 33, (2S,4R)−1‐{(S)−3,3‐Dimethyl‐2‐(2,2,2‐Trifluoroacetamido)Butanoyl}−4‐Methoxy‐N‐[(S)−1‐[((4‐Methoxybenzoyl)Oxy)Imino]−3‐[(S)−2‐Oxopyrrolidin‐3‐yl]Propan‐2‐yl]Pyrrolidine‐2‐Carboxamide] | – | – | fold higher reactivity than the vinyl sulfone (32) (SARS-CoV-2 M^pro [3]; Kinact/KI of 33 vs 32): ~20 fold; kinact/KI (SARS-CoV-2 M^pro [3]): 77000 M⁻¹ s⁻¹; residual enzyme activity after jump dilution (WT SARS-CoV-2 Mpro): very low residual enzyme activity; mechanism of inhibition (reversibility) (WT SARS-CoV-2 Mpro): irreversible; metabolic stability toward liver microsomes (in words) [2]: readily degraded
CC(C)(C)[C@H](NC(=O)C(F)(F)F)C(=O)N1C[C@H](c2ccccc2)C[C@H]1C(=O)N[C@H](C#N)C[C@@H]1CCNC1=O [Compound 34, (2S,4S)‐N‐[(S)−1‐Cyano‐2‐[(S)−2‐Oxopyrrolidin‐3‐yl]Ethyl]−1‐{(S)−3,3‐Dimethyl‐2‐(2,2,2‐Trifluoroacetamido)Butanoyl}−4‐Phenylpyrrolidine‐2‐Carboxamide] | 8.90 | 8.9 ± 0.01 | metabolic stability toward liver microsomes (in words) [2]: comparable stability to the initial prototype 22
CC(C)(C)[C@H](NC(=O)C(F)(F)F)C(=O)N1C[C@H]2[C@@H]([C@H]1C(=O)N[C@H](C#N)C[C@@H]1CCNC1=O)C2(C)C [nirmatrelvir] | – | – | remaining parent compound after 480 min [2]: ca. 80%
C[C@]12CC[C@H]3[C@@H](CCC4=CC(=O)CC[C@@]43C)[C@@H]1CC[C@@H]2O [testosterone, reference compound] | – | – | metabolic stability toward liver microsomes (in words) [2]: readily degraded
